The molecules below were run on microfilariae of Dirofilaria immitis (assay: Dirofilaria immitis, Microfilaria (DiMF) In vitro Assay). Conditions: 72 h, read-out: DiMF Minimum Effective Dose (MED), approximately 72 hours incubation, microfilariae assessed for survival or paralysis.
Format: cell-based

**Q.** How did the minimal effective concentration turn out when `Cc1nn(Cc2ccc(C[C@H]3OC(=O)[C@H](CC(C)C)N(C)C(=O)[C@@H](C)OC(=O)[C@H](CC(C)C)N(C)C(=O)[C@@H](Cc4ccccc4)OC(=O)[C@H](CC(C)C)N(C)C(=O)[C@@H](C)OC(=O)[C@H](CC(C)C)N(C)C3=O)cc2)c(C)c1O` [Example 2-44, (3S,6R,9S,12R,15S,18R,21S,24R)-6-benzyl-18-(4-((4-hydroxy-3,5-dimethyl-1H-pyrazol-1-yl)methyl)benzyl)-3,9,15,21-tetraisobutyl-4,10,12,16,22,24-hexamethyl-1,7,13,19-tetraoxa-4,10,16,22-tetraazacyclotetracosan-2,5,8,11,14,17,20,23-octaone] was run?
**A.** 0.001 to 0.01 µM

**Q.** Which minimal effective concentration does the source give for `CC(C)C[C@H]1C(=O)O[C@H](Cc2ccc(Cn3cc(-c4cnccn4)cn3)cc2)C(=O)N(C)[C@@H](CC(C)C)C(=O)O[C@H](C)C(=O)N(C)[C@@H](CC(C)C)C(=O)O[C@H](Cc2ccccc2)C(=O)N(C)[C@@H](CC(C)C)C(=O)O[C@H](C)C(=O)N1C` [Example 2-46, (3S,6R,9S,12R,15S,18R,21S,24R)-6-benzyl-3,9,15,21-tetraisobutyl-4,10,12,16,22,24-hexamethyl-18-(4-((4-(pyrazin-2-yl)-1H-pyrazol-1-yl)methyl)benzyl)-1,7,13,19-tetraoxa-4,10,16,22-tetraazacyclotetracosan-2,5,8,11,14,17,20,23-octaone] here?
**A.** 0.001 to 0.01 µM

**Q.** Which minimal effective concentration does the source give for `CC(C)C[C@H]1C(=O)O[C@H](Cc2ccc(Cn3cc(-c4ccccn4)cn3)cc2)C(=O)N(C)[C@@H](CC(C)C)C(=O)O[C@H](C)C(=O)N(C)[C@@H](CC(C)C)C(=O)O[C@H](Cc2ccccc2)C(=O)N(C)[C@@H](CC(C)C)C(=O)O[C@H](C)C(=O)N1C` [Example 2-47, (3S,6R,9S,12R,15S,18R,21S,24R)-6-benzyl-3,9,15,21-tetraisobutyl-4,10,12,16,22,24-hexamethyl-18-(4-((4-(pyridin-2-yl)-1H-pyrazol-1-yl)methyl)benzyl)-1,7,13,19-tetraoxa-4,10, 16,22-tetraazacyclotetracosan-2,5,8,11,14,17,20,23-octaone] here?
**A.** 0.001 to 0.01 µM

**Q.** With `Cc1nn(Cc2ccc(C[C@H]3OC(=O)[C@H](CC(C)C)N(C)C(=O)[C@@H](C)OC(=O)[C@H](CC(C)C)N(C)C(=O)[C@@H](Cc4ccccc4)OC(=O)[C@H](CC(C)C)N(C)C(=O)[C@@H](C)OC(=O)[C@H](CC(C)C)N(C)C3=O)cc2)c(C)c1Cl` [Example 2-50, (3S,6R,9S,12R,15S,18R,21S,24R)-6-benzyl-18-(4-((4-chloro-3,5-dimethyl-1H-pyrazol-1-yl)methyl)benzyl)-3,9,15,21-tetraisobutyl-4,10,12,16,22,24-hexamethyl-1,7,13,19-tetraoxa-4,10,16,22-tetraazacyclotetracosan-2,5,8,11,14,17,20,23-octaone] as the molecule, how does the minimal effective concentration read?
**A.** 0.01 to 0.1 µM

**Q.** `CC(=O)NCc1cnn(Cc2ccc(C[C@H]3OC(=O)[C@H](CC(C)C)N(C)C(=O)[C@@H](C)OC(=O)[C@H](CC(C)C)N(C)C(=O)[C@@H](Cc4ccccc4)OC(=O)[C@H](CC(C)C)N(C)C(=O)[C@@H](C)OC(=O)[C@H](CC(C)C)N(C)C3=O)cc2)c1` [Example 2-52, N-((1-(4-(((2R,5S,8R,11S,14R,17S,20R,23S)-14-benzyl-5,11,17,23-tetraisobutyl-4,8,10,16,20,22-hexamethyl-3,6,9,12,15,18,21,24-octaoxo-1,7,13,19-tetraoxa-4,10,16,22-tetraazacyclotetracosan-2-yl)methyl)benzyl)-1H-pyrazol-4-yl)methyl)acetamide] was tested. Which minimal effective concentration did it give?
**A.** 0.01 to 0.1 µM

**Q.** For `CC(C)C[C@H]1C(=O)O[C@H](Cc2ccc(Cn3nc(C(C)C)cc3C(C)C)cc2)C(=O)N(C)[C@@H](CC(C)C)C(=O)O[C@H](C)C(=O)N(C)[C@@H](CC(C)C)C(=O)O[C@H](Cc2ccccc2)C(=O)N(C)[C@@H](CC(C)C)C(=O)O[C@H](C)C(=O)N1C` [Example 2-54, (3S,6R,9S,12R,15S,18R,21S,24R)-6-benzyl-18-(4-((3,5-diisopropyl-1H-pyrazol-1-yl)methyl)benzyl)-3,9,15,21-tetraisobutyl-4,10,12,16,22,24-hexamethyl-1,7,13,19-tetraoxa-4,10,16,22-tetraazacyclotetracosan-2,5,8,11,14,17,20,23-octaone], which minimal effective concentration is on record?
**A.** 0.01 to 0.1 µM

**Q.** For `CC(C)C[C@H]1C(=O)O[C@H](Cc2ccc(Cn3ccc(-c4ccccc4)n3)cc2)C(=O)N(C)[C@@H](CC(C)C)C(=O)O[C@H](C)C(=O)N(C)[C@@H](CC(C)C)C(=O)O[C@H](Cc2ccccc2)C(=O)N(C)[C@@H](CC(C)C)C(=O)O[C@H](C)C(=O)N1C` [Example 2-56, (3S,6R,9S,12R,15S,18R,21S,24R)-6-benzyl-3,9,15,21-tetraisobutyl-4,10,12,16,22,24-hexamethyl-18-(4-((3-phenyl-1H-pyrazol-1-yl)methyl)benzyl)-1,7,13,19-tetraoxa-4,10,16,22-tetraazacyclotetracosan-2,5,8,11,14,17,20,23-octaone], which minimal effective concentration is on record?
**A.** 0.01 to 0.1 µM

**Q.** Which minimal effective concentration does the source give for `CC(C)C[C@H]1C(=O)O[C@H](Cc2ccc(Cn3ccc(Br)n3)cc2)C(=O)N(C)[C@@H](CC(C)C)C(=O)O[C@H](C)C(=O)N(C)[C@@H](CC(C)C)C(=O)O[C@H](Cc2ccccc2)C(=O)N(C)[C@@H](CC(C)C)C(=O)O[C@H](C)C(=O)N1C` [Example 2-57, (3S,6R,9S,12R,15S,18R,21S,24R)-6-benzyl-18-(4-((3-bromo-1H-pyrazol-1-yl)methyl)benzyl)-3,9,15,21-tetraisobutyl-4,10,12,16,22,24-hexamethyl-1,7,13,19-tetraoxa-4,10,16,22-tetraazacyclotetracosan-2,5,8,11,14,17,20,23-octaone] here?
**A.** 0.01 to 0.1 µM

**Q.** `CC(C)C[C@H]1C(=O)O[C@H](Cc2ccc(Cn3ccc(C(F)(F)F)n3)cc2)C(=O)N(C)[C@@H](CC(C)C)C(=O)O[C@H](C)C(=O)N(C)[C@@H](CC(C)C)C(=O)O[C@H](Cc2ccccc2)C(=O)N(C)[C@@H](CC(C)C)C(=O)O[C@H](C)C(=O)N1C` [Example 2-58, (3S,6R,9S,12R,15S,18R,21S,24R)-6-benzyl-3,9,15,21-tetraisobutyl-4,10,12,16,22,24-hexamethyl-18-(4-((3-(trifluoromethyl)-1H-pyrazol-1-yl)methyl)benzyl)-1,7,13,19-tetraoxa-4,10,16,22-tetraazacyclotetracosan-2,5,8,11,14,17,20,23-octaone] was tested. Which minimal effective concentration did it give?
**A.** 0.01 to 0.1 µM

**Q.** `CC(C)C[C@H]1C(=O)O[C@H](Cc2ccc(Cn3cc(CN)cn3)cc2)C(=O)N(C)[C@@H](CC(C)C)C(=O)O[C@H](C)C(=O)N(C)[C@@H](CC(C)C)C(=O)O[C@H](Cc2ccccc2)C(=O)N(C)[C@@H](CC(C)C)C(=O)O[C@H](C)C(=O)N1C` [Example 2-59, (3S,6R,9S,12R,15S,18R,21S,24R)-6-(4-((4-(aminomethyl)-1H-pyrazol-1-yl)methyl)benzyl)-18-benzyl-3,9,15,21-tetraisobutyl-4,10,12,16,22,24-hexamethyl-1,7,13,19-tetraoxa-4,10,16,22-tetraazacyclotetracosan-2,5,8,11,14,17,20,23-octaone] was tested. Which minimal effective concentration did it give?
**A.** 0.01 to 0.1 µM

**Q.** `Cc1nn(Cc2ccc(C[C@H]3OC(=O)[C@H](CC(C)C)N(C)C(=O)[C@@H](C)OC(=O)[C@H](CC(C)C)N(C)C(=O)[C@@H](Cc4ccccc4)OC(=O)[C@H](CC(C)C)N(C)C(=O)[C@@H](C)OC(=O)[C@H](CC(C)C)N(C)C3=O)cc2)c(C)c1S(=O)(=O)N1CCCCC1` [Example 2-60, (3S,6R,9S,12R,15S,18R,21S,24R)-6-benzyl-18-(4-((3,5-dimethyl-4-(piperidin-1-ylsulfonyl)-1H-pyrazol-1-yl)methyl)benzyl)-3,9,15,21-tetraisobutyl-4,10,12,16,22,24-hexamethyl-1,7,13,19-tetraoxa-4,10,16,22-tetraazacyclotetracosan-2,5,8,11,14,17,20,23-octaone] was tested. Which minimal effective concentration did it give?
**A.** 0.01 to 0.1 µM

**Q.** Which minimal effective concentration does the source give for `CC(C)C[C@H]1C(=O)O[C@H](Cc2ccc(Cn3cc(C4=CCCC4)cn3)cc2)C(=O)N(C)[C@@H](CC(C)C)C(=O)O[C@H](C)C(=O)N(C)[C@@H](CC(C)C)C(=O)O[C@H](Cc2ccccc2)C(=O)N(C)[C@@H](CC(C)C)C(=O)O[C@H](C)C(=O)N1C` [Example 2-61, (3S,6R,9S,12R,15S,18R,21S,24R)-6-benzyl-18-(4-((4-(cyclopent-1-en-1-yl)-1H-pyrazol-1-yl)methyl)benzyl)-3,9,15,21-tetraisobutyl-4,10,12,16,22,24-hexamethyl-1,7,13,19-tetraoxa-4,10,16,22-tetraazacyclotetracosan-2,5,8,11,14,17,20,23-octaone] here?
**A.** 0.01 to 0.1 µM

**Q.** With `CC(C)C[C@H]1C(=O)O[C@H](Cc2ccc(Cn3nccc3-c3ccccc3)cc2)C(=O)N(C)[C@@H](CC(C)C)C(=O)O[C@H](C)C(=O)N(C)[C@@H](CC(C)C)C(=O)O[C@H](Cc2ccccc2)C(=O)N(C)[C@@H](CC(C)C)C(=O)O[C@H](C)C(=O)N1C` [Example 2-67, (3S,6R,9S,12R,15S,18R,21S,24R)-6-benzyl-3,9,15,21-tetraisobutyl-4,10,12,16,22,24-hexamethyl-18-(4-((5-phenyl-1H-pyrazol-1-yl)methyl)benzyl)-1,7,13,19-tetraoxa-4,10,16,22-tetraazacyclotetracosan-2,5,8,11,14,17,20,23-octaone] as the molecule, how does the minimal effective concentration read?
**A.** 0.01 to 0.1 µM

**Q.** `CC(C)C#Cc1cnn(Cc2ccc(C[C@H]3OC(=O)[C@H](CC(C)C)N(C)C(=O)[C@@H](C)OC(=O)[C@H](CC(C)C)N(C)C(=O)[C@@H](Cc4ccccc4)OC(=O)[C@H](CC(C)C)N(C)C(=O)[C@@H](C)OC(=O)[C@H](CC(C)C)N(C)C3=O)cc2)c1` [Example 2-70, (3S,6R,9S,12R,15S,18R,21S,24R)-6-benzyl-3,9,15,21-tetraisobutyl-4,10,12,16,22,24-hexamethyl-18-(4-((4-(3-methylbut-1-yn-1-yl)-1H-pyrazol-1-yl)methyl)benzyl)-1,7,13,19-tetraoxa-4,10,16,22-tetraazacyclotetracosan-2,5,8,11,14,17,20,23-octaone] was tested. Which minimal effective concentration did it give?
**A.** 0.01 to 0.1 µM

— US11331369B2, “Endoparasitic depsipeptides” (Zoetis Services LLC, priority 2017, dated 2022)
